{
  "source": "patent US20140357512A1",
  "about": "“HISTONE DEACETYLASE (HDAC) BIOMARKERS IN MULTIPLE MYELOMA” (priority 2013, published 2014)",
  "tested_on": "human myeloma cell line MM.1S",
  "assay": "SILAC acetylated-lysine peptide profiling, HDAC inhibitor vs DMSO (light/heavy ratio)",
  "type": "cell-based",
  "excerpt": "An embodiment of the invention comprises utilizing the SILAC method in order to quantitate changes in protein expression between two or more populations of cells. The SILAC method is a technique based on mass spectrometry that detects differences in protein abundance among samples using non-radioactive isotopic labeling. The SILAC method is known in the art, and described in detail in Ong et al., “Stable Isotope Labeling by Amino Acids in Cell Culture, SILAC, as a Simple and Accurate Approach to Expression Proteomics”, Molecular & Cellular Proteomics, vol. 1, pp. 376-386 (2002), which is incorporated herein by reference in its entirety.\nBriefly, the SILAC method involves growing two populations of cells in cell culture. The first population of cells is grown in growth media containing normal amino acids (“normal media”). The second population of cells is grown in media lacking a standard essential amino acid (such as lysine), but is then supplemented with a non-radioactive, isotopically labeled form of that essential amino acid (such as lysine labeled with ^13C atoms, rather than normal ^12C atoms), which is called “heavy media”. When the two populations of cells are each growing in the medium, they incorporate the amino acids into all of their proteins. The growth of cells maintained in the heavy media is no different from that in normal media. All peptides containing the heavy amino acids are heavier than their normal counterparts. The cells from each of the two populations of cells are lysed. The lysates from each of the two cell populations are then combined. The combined cell lysates are then analyzed by mass spectrometry. Pairs of chemically identical peptides of different stable isotope composition can be differentiated in a mass spectrometer due to their difference in mass. The ratio of peak intensities in the mass spectrum for such peptide pairs reflects the abundance ratio for the two proteins.\nThis example describes SILAC studies that were performed to compare the effects of three different HDAC inhibitors (Compound A, Compound B, and tubastatin A) to a control on a human multiple myeloma cell line. The HDAC inhibitors were also compared amongst themselves to determine differences in their effects.\nA human myeloma cell line MM.1S was grown using either ^12C (light) or ^13C (heavy) lysine containing culture medium. The “heavy” cells were treated with DMSO as the control, and the “light” cells were treated with a single HDAC inhibitor at 37° C. for 6 hours. The heavy and light cells were lysed, and the lysates were mixed in 1:1 ratio and digested with the protease trypsin. The acetylated lysine containing peptides (due to the action of the HDAC inhibitor) in the digested peptide pool were captured by a non-specific anti-acetylated lysine antibody cocktail (the antibodies identify both light and heavy acetylated peptides), and subjected to mass spectrometry analysis in order to identify thousands of individual peptides.\nThousands of peptides were identified in pairs (^12C and ^13C) due to their known mass differences. The amino acid sequence and quantitative ratio (Light/Heavy) of a given peptide in two differentially treated cell lysates were then determined and annotated with their possible protein (gene) sources.\nAs stated above, three HDAC inhibitors (Compound A, Compound B, and Tubastatin A) were used. Thus, the SILAC method was performed three times, with a different HDAC inhibitor compared to a control each time. Accordingly, there are three pairs of quantitative data in the table below, i.e., Compound A:DMSO, Compound B:DMSO, and Tubastatin A:DMSO. A cut-off of 1.30 fold of change (increase or decrease) was then used to determine “changed” or “+” in the table, and any peptides with a fold of change less than 1.3 fold were determined to be “unchanged” or “0” in the table. Those peptides that were not identified were marked as “NA” in the table. […]",
  "data": [
    {"smiles": "O=C(CCCCCCNC(=O)c1cnc(N(c2ccccc2)c2ccccc2)nc1)NO", "note": "[Compound A, 2-(diphenylamino)-N-(7-(hydroxyamino)-7-oxoheptyl)pyrimidine-5-carboxamide]", "values": [
      {"measurement": "light to heavy ratio (L/H ratio) of acetylated peptide MTDK(ac)CFR (SEQ ID NO: 573)", "setting": "Mitochondrial import inner membrane translocase subunit Tim13 [45], gene TIMM13, inhibitor:DMSO", "result": 0.42, "unit": "log 2"},
      {"measurement": "light to heavy ratio (L/H ratio), log 2 scale, acetylated peptide YVK(ac)ALFR (SEQ ID NO: 771)", "setting": "Mitochondrial import receptor subunit TOM70 [188], gene TOMM70A, drug:DMSO", "result": 0.99},
      {"measurement": "light to heavy ratio (L/H ratio) of acetylated peptide (ac)AEPVSPLK(ac)HFVLAK (SEQ ID NO: 508)", "setting": "Mitochondrial transmembrane GTPase FZO-2 [37], gene MFN1, inhibitor:DMSO", "result": "−0.63", "unit": "log 2"},
      {"measurement": "light to heavy ratio (L/H ratio) of acetylated peptide LSLLSK(ac)FR (SEQ ID NO: 564)", "setting": "Mitochondrial trifunctional protein beta subunit (Fragment) [100], gene HADHB, inhibitor:DMSO", "result": 0.41, "unit": "log 2"},
      {"measurement": "light to heavy ratio (L/H ratio) of acetylated peptide EIFQNEK(ac)R (SEQ ID NO: 288)", "setting": "NAD(P) transhydrogenase mitochondrial [70], NNT, drug:DMSO", "result": 0.64, "unit": "log 2"},
      {"measurement": "light to heavy ratio (L/H ratio) of acetylated peptide AISPDK(ac)DNFYFDVK (SEQ ID NO: 284)", "setting": "NAD(P) transhydrogenase mitochondrial [403], NNT, drug:DMSO", "result": 0.61, "unit": "log 2"},
      {"measurement": "L/H ratio of acetylated peptide", "setting": "NK(ac)WFFQK (SEQ ID NO: 498), 60S ribosomal protein L27 [128], RPL27", "result": "−0.86", "unit": "log 2"},
      {"measurement": "L/H ratio of acetylated peptide", "setting": "NK(ac)YGDAFIR (SEQ ID NO: 496), U6 snRNA-associated Sm-like protein LSm6 [59], LSM6", "result": "−0.93", "unit": "log 2"},
      {"measurement": "L/H ratio of acetylated peptide ADKDYHFK(ac)[…] (SEQ ID NO: 61)", "setting": "NPM1 [32], log 2 scale, drug vs DMSO", "result": 0.00},
      {"measurement": "L/H ratio of acetylated peptide FINYVK(ac)NCFR (SEQ ID NO: 62)", "setting": "NPM1 [244], log 2 scale, drug vs DMSO", "result": 0.00},
      {"measurement": "L/H ratio of acetylated peptide GVTQFGNK(ac)[…] (SEQ ID NO: 18)", "setting": "NUDT21 [23], log 2 scale, drug vs DMSO", "result": 1.00},
      {"measurement": "light to heavy ratio (L/H ratio) of acetylated peptide FCLSK(ac)PGVYK (SEQ ID NO: 345)", "setting": "Nodal modulator 1 [630], NOMO3, NOMO1, drug:DMSO", "result": 0.00, "unit": "log 2"},
      {"measurement": "light to heavy ratio (L/H ratio) of acetylated peptide […](ac)R (SEQ ID NO: 532)", "setting": "Nucleosome assembly protein 1-like 1 [116], gene NAP1L1, inhibitor:DMSO", "result": "−0.41", "unit": "log 2"},
      {"measurement": "L/H ratio of acetylated peptide SGVGNVFIK(ac)NLDK (SEQ ID NO: 63)", "setting": "PABPC4 [104], log 2 scale, drug vs DMSO", "result": 0.00},
      {"measurement": "L/H ratio of acetylated peptide […](ac)IFR (SEQ ID NO: 66)", "setting": "PDIA3 [104], log 2 scale, drug vs DMSO", "result": 0.00},
      {"measurement": "L/H ratio of acetylated peptide PSHLTNK(ac)FEDK (SEQ ID NO: 65)", "setting": "PDIA3 [214], log 2 scale, drug vs DMSO", "result": 0.00},
      {"measurement": "L/H ratio of acetylated peptide GEK(ac)FVMQEEFSR (SEQ ID NO: 64)", "setting": "PDIA3 [335], log 2 scale, drug vs DMSO", "result": 0.00},
      {"measurement": "L/H ratio of acetylated peptide SLLGK(ac)DVLFLK (SEQ ID NO: 67)", "setting": "PGK1 [91], log 2 scale, drug vs DMSO", "result": 0.00},
      {"measurement": "light to heavy ratio (L/H ratio) of acetylated peptide, log 2 scale", "setting": "PLISVYSEK(ac)GESSGK (SEQ ID NO: 247), 60S ribosomal protein L4 [14], RPL4", "result": "−0.54"},
      {"measurement": "L/H ratio of acetylated peptide SIYGEK(ac)FEDENFILK (SEQ ID NO: 68)", "setting": "PPIA [82], log 2 scale, drug vs DMSO", "result": 0.00},
      {"measurement": "L/H ratio of acetylated peptide VIFGLFGK(ac)TVPK (SEQ ID NO: 70)", "setting": "PPIB [67], log 2 scale, drug vs DMSO", "result": 0.00},
      {"measurement": "L/H ratio of acetylated peptide TVPK(ac)[…] (SEQ ID NO: 69)", "setting": "PPIB [71], log 2 scale, drug vs DMSO", "result": 0.00},
      {"measurement": "L/H ratio of acetylated peptide VIK(ac)[…] (SEQ ID NO: 71)", "setting": "PPIB [98], log 2 scale, drug vs DMSO", "result": 0.00},
      {"measurement": "L/H ratio of acetylated peptide IYGFYDECK(ac)R (SEQ ID NO: 72)", "setting": "PPP1CC [141], log 2 scale, drug vs DMSO", "result": 0.00},
      {"measurement": "light to heavy ratio (L/H ratio) of acetylated peptide TAWLDGK(ac)HVVFGK (SEQ ID NO: 592)", "setting": "Peptidyl-prolyl cis-trans isomerase B [165], gene PPIB, inhibitor:DMSO", "result": 0.44, "unit": "log 2"},
      {"measurement": "light to heavy ratio (L/H ratio) of acetylated peptide FPDENFK(ac)LK (SEQ ID NO: 347)", "setting": "Peptidyl-prolyl cis-trans isomerase C [123], PPIC, drug:DMSO", "result": 0.00, "unit": "log 2"},
      {"measurement": "light to heavy ratio (L/H ratio) of acetylated peptide HVVFGK(ac)VK (SEQ ID NO: 576)", "setting": "Peptidylprolyl isomerase A (Cyclophilin A) (PPIA) pseudogene [141], gene PPIAP26, inhibitor:DMSO", "result": 0.42, "unit": "log 2"},
      {"measurement": "light to heavy ratio (L/H ratio) of acetylated peptide LAK(ac)YFFNK (SEQ ID NO: 604)", "setting": "Periodic tryptophan protein 2 homolog [279], gene PWP2, inhibitor:DMSO", "result": 0.46, "unit": "log 2"},
      {"measurement": "light to heavy ratio (L/H ratio) of acetylated peptide AAWEHMK(ac)K (SEQ ID NO: 551)", "setting": "Peroxisomal multifunctional enzyme type 2 [139], gene HSD17B4, inhibitor:DMSO", "result": 0.39, "unit": "log 2"},
      {"measurement": "light to heavy ratio (L/H ratio) of acetylated peptide FAK(ac)[…] (SEQ ID NO: 557)", "setting": "Peroxisomal multifunctional enzyme type 2 [565], gene HSD17B4, inhibitor:DMSO", "result": 0.40, "unit": "log 2"},
      {"measurement": "light to heavy ratio (L/H ratio) of acetylated peptide […](ac)EALKK (SEQ ID NO: 619)", "setting": "Poly [ADP-ribose] polymerase 1 [192], gene PARP1, inhibitor:DMSO", "result": 0.48, "unit": "log 2"},
      {"measurement": "light to heavy ratio (L/H ratio) of acetylated peptide […](ac)DELKK (SEQ ID NO: 346)", "setting": "Poly [ADP-ribose] polymerase 1 [249], PARP1, drug:DMSO", "result": 0.00, "unit": "log 2"},
      {"measurement": "light to heavy ratio (L/H ratio) of acetylated peptide […](ac)NVLK (SEQ ID NO: 527)", "setting": "Pre-mRNA-processing-splicing factor 8 [2108], gene PRPF8, inhibitor:DMSO", "result": "−0.44", "unit": "log 2"},
      {"measurement": "light to heavy ratio (L/H ratio) of acetylated peptide ALK(ac)YLVMDEADR (SEQ ID NO: 513)", "setting": "Probable ATP-dependent RNA helicase DDX47 [169], gene DDX47, inhibitor:DMSO", "result": "−0.58", "unit": "log 2"},
      {"measurement": "light to heavy ratio (L/H ratio) of acetylated peptide (ac)AAK(ac)VFESIGK (SEQ ID NO: 277)", "setting": "Prohibitin [4], PHB, drug:DMSO", "result": 0.54, "unit": "log 2"}
    ]}
  ]
}
